{"source": "patent US11564394B2", "about": "“Distorted gold (I)-phosphine complexes and methods for use as antifungal agents” (University of Kentucky Research Foundation, priority 2019, dated 2023)", "key": {"[1]": {"test_system": "C. glabrata ATCC 2001 (strain H) biofilm", "test": "Prevention of biofilm formation (XTT)", "assay_type": "cell-based, Candida glabrata", "details": "treated at 0 h"}, "[2]": {"test_system": "C. neoformans CN2 (strain O)", "test": "MIC determination (broth microdilution)", "assay_type": "cell-based, Cryptococcus neoformans", "details": "MIC-0, 72 h at 35° C."}, "Candida spp. biofilms": {"test_system": "Candida spp. biofilms", "details": "biofilms of Candida spp.", "protocol": "For assays with a pre-formed biofilm, 100 μL of fungal cells were aliquoted in a 96-well plate, leaving one column empty for the sterile control. After 24 h incubation at 37° C., visible biofilms had formed in the well. The biofilm was washed three times with 100 μL of PBS. […] Plates were incubated at 37° C. for 24 h. Finally, the plates were washed three times with PBS before adding 100 μL of XTT dye. The XTT was prepared by dissolving XTT at 0.5 mg/mL concentration in sterile PBS. Before adding to a plate, 1 μL of 10 mM menadione in acetone was added to 10 mL of the 0.5 mg/mL solution of XTT. After addition of XTT (containing menadione), the plates were incubated for 3 h at 37° C. in the dark. 80 μL of liquid from each well was transferred to a new plate and then with the plate reader for absorbance at 450 nm. For these experiments, we determined the sessile MIC (SMIC90), which is defined as the compound concentration required to inhibit the metabolic activity of biofilm by 90% compared to the growth control (Table 3). […] Each assay was performed in duplicate."}, "[3]": {"test_system": "A. flavus ATCC MYA-3631 (strain S)", "test": "MIC determination (broth microdilution)", "assay_type": "cell-based, Aspergillus flavus", "details": "strain S = A. flavus ATCC MYA-3631; MIC-0; 72 h at 35° C."}, "[4]": {"test_system": "A. nidulans ATCC 38163 (strain Q)", "test": "MIC determination (broth microdilution)", "assay_type": "cell-based, Aspergillus nidulans", "details": "strain Q = A. nidulans ATCC 38163; MIC-0; 72 h at 35° C."}, "[5]": {"test_system": "C. glabrata ATCC 2001 (strain H) pre-formed biofilm", "test": "Disruption of pre-formed biofilm (XTT)", "assay_type": "cell-based, Candida glabrata"}, "[6]": {"test_system": "C. albicans ATCC 10231 (strain B) biofilm", "test": "Prevention of biofilm formation (XTT)", "assay_type": "cell-based, Candida albicans", "details": "treated at 0 h, 90% decrease in metabolic activity (XTT)"}, "[7]": {"test_system": "C. auris AR Bank # 0384 (strain K) biofilm", "assay_type": "cell-based, Candida auris", "details": "treated at 0 h, XTT"}, "[8]": {"test_system": "C. auris AR Bank # 0389 (strain VIII)", "test": "MIC determination (broth microdilution)", "assay_type": "cell-based, Candida auris", "details": "strain VIII = C. auris AR Bank # 0389; MIC-0; 48 h (CAS read at 24 h)"}, "[9]": {"test_system": "C. auris AR Bank # 0386 (strain V)", "test": "MIC determination (broth microdilution)", "assay_type": "cell-based, Candida auris", "details": "strain V = C. auris AR Bank # 0386; MIC-0; 48 h (CAS read at 24 h)"}, "[10]": {"test_system": "F. graminearum 053 (strain T)", "assay_type": "cell-based, Fusarium graminearum", "details": "strain T = F. graminearum 053; MIC-0; room temperature, 5 days"}, "[11]": {"test_system": "C. parapsilosis ATCC 22019 (strain J)", "test": "MIC determination (broth microdilution)", "assay_type": "cell-based", "details": "strain J = C. parapsilosis ATCC 22019; MIC-0; 48 h; listed as printed beside letter K"}, "[12]": {"test_system": "C. auris AR Bank # 0390 (strain L) pre-formed biofilm", "assay_type": "cell-based, Candida auris", "details": "biofilm treated at 24 h, XTT"}, "[13]": {"test_system": "C. auris AR Bank # 0381 (strain I)", "test": "MIC determination (broth microdilution)", "assay_type": "cell-based, Candida auris", "details": "strain I = C. auris AR Bank # 0381; MIC-0; 48 h (CAS read at 24 h)"}, "[14]": {"test_system": "A. terreus ATCC MYA-3633 (strain R)", "assay_type": "cell-based, Aspergillus terreus", "details": "strain R = A. terreus ATCC MYA-3633; MIC-0; 72 h at 35° C."}, "[15]": {"test_system": "C. albicans ATCC MYA-2310(S) (strain D)", "test": "MIC determination (broth microdilution)", "assay_type": "cell-based, Candida albicans", "details": "strain D = C. albicans ATCC MYA-2310(S); MIC-0; 48 h; listed as printed beside letter E"}, "[16]": {"test_system": "C. albicans ATCC 10231(R) (strain B)", "assay_type": "cell-based, Candida albicans"}, "[17]": {"test_system": "C. auris AR Bank # 0383 (strain III)", "test": "MIC determination (broth microdilution)", "assay_type": "cell-based, Candida auris", "details": "strain III = C. auris AR Bank # 0383; MIC-0; 48 h (CAS read at 24 h)"}, "[18]": {"test_system": "C. krusei ATCC 6258 (strain I)", "test": "MIC determination (broth microdilution)", "assay_type": "cell-based", "details": "strain I = C. krusei ATCC 6258; MIC-0; 48 h; listed as split over r16 and r17 (r17 printed beside letter J)"}, "[19]": {"test_system": "C. auris AR Bank # 0390 (strain L) biofilm", "assay_type": "cell-based, Candida auris", "details": "treated at 0 h, XTT"}, "[20]": {"test_system": "C. auris AR Bank # 0387 (strain VI)", "test": "MIC determination (broth microdilution)", "assay_type": "cell-based, Candida auris", "details": "strain VI = C. auris AR Bank # 0387; MIC-0; 48 h (CAS read at 24 h)"}, "[21]": {"test_system": "C. neoformans ATCC MYA-85 (strain M)", "test": "MIC determination (broth microdilution)", "assay_type": "cell-based, Cryptococcus neoformans", "details": "strain M = C. neoformans ATCC MYA-85; MIC-0; 72 h at 35° C."}, "[22]": {"test_system": "C. glabrata ATCC 2001 (strain H)", "test": "MIC determination (broth microdilution)", "assay_type": "cell-based, Candida glabrata", "details": "strain H = C. glabrata ATCC 2001; MIC-0; 48 h at 35° C."}}}
{"substance": "bis-[1,2-bis[(2R,5R)-2,5-dimethylfphospholano]benzene]gold(1) [Compound 6]", "values": [{"measurement": "Biofilm prevention SMIC90", "setting": "[1]", "result": 1.95, "unit": "µg/mL"}, {"measurement": "MIC", "setting": "[2]", "result": 0.49, "unit": "µg/mL"}, {"measurement": "MIC (in parentheses)", "setting": "[2]", "result": 0.6, "unit": "µM"}, {"measurement": "activity against biofilms", "setting": "Candida spp. biofilms", "result": "good activity"}, {"measurement": "MIC", "setting": "[3]", "result": 7.8, "unit": "µg/mL"}, {"measurement": "MIC (in parentheses)", "setting": "[3]", "result": 9.2, "unit": "µM"}, {"measurement": "MIC", "setting": "[4]", "result": 3.9, "unit": "µg/mL"}, {"measurement": "MIC (in parentheses)", "setting": "[4]", "result": 4.6, "unit": "µM"}, {"measurement": "SMIC90 of pre-formed biofilm relative to MIC with planktonic cells", "setting": "[5]", "result": 4, "unit": "fold"}, {"measurement": "Pre-formed biofilm SMIC90", "setting": "[5]; biofilm treated at 24 h, XTT", "result": 3.9, "unit": "µg/mL"}, {"measurement": "Biofilm prevention SMIC90", "setting": "[6]", "result": 0.98, "unit": "µg/mL"}, {"measurement": "Biofilm prevention SMIC90", "setting": "[7]", "result": 3.9, "unit": "µg/mL"}, {"measurement": "MIC", "setting": "[8]", "result": 1.95, "unit": "µg/mL"}, {"measurement": "MIC (in parentheses)", "setting": "[8]", "result": 2.3, "unit": "µM"}, {"measurement": "MIC", "setting": "[9]", "result": 3.9, "unit": "µg/mL"}, {"measurement": "MIC (in parentheses)", "setting": "[9]", "result": 4.6, "unit": "µM"}, {"measurement": "MIC", "setting": "[10]", "result": 3.9, "unit": "µg/mL"}, {"measurement": "MIC (in parentheses)", "setting": "[10]", "result": 4.6, "unit": "µM"}, {"measurement": "MIC", "setting": "[11]", "result": 0.49, "unit": "µg/mL"}, {"measurement": "MIC (in parentheses)", "setting": "[11]", "result": 0.6, "unit": "µM"}, {"measurement": "Pre-formed biofilm SMIC90", "setting": "[12]", "result": 7.8, "unit": "µg/mL"}, {"measurement": "MIC", "setting": "[13]", "result": 0.98, "unit": "µg/mL"}, {"measurement": "MIC (in parentheses)", "setting": "[13]", "result": 1.2, "unit": "µM"}, {"measurement": "MIC", "setting": "[14]", "result": 3.9, "unit": "µg/mL"}, {"measurement": "MIC (in parentheses)", "setting": "[14]", "result": 4.6, "unit": "µM"}, {"measurement": "MIC", "setting": "[15]", "result": 0.49, "unit": "µg/mL"}, {"measurement": "MIC (in parentheses)", "setting": "[15]", "result": 0.6, "unit": "µM"}, {"measurement": "MIC", "setting": "[16]", "result": "0.98 (1.2) μg/mL"}, {"measurement": "MIC (in parentheses)", "setting": "[16]", "result": "0.98 (1.2) μM"}, {"measurement": "MIC", "setting": "[17]", "result": 3.9, "unit": "µg/mL"}, {"measurement": "MIC (in parentheses)", "setting": "[17]", "result": 4.6, "unit": "µM"}, {"measurement": "MIC", "setting": "[18]", "result": 0.98, "unit": "µg/mL"}, {"measurement": "MIC (in parentheses)", "setting": "[18]", "result": 0.6, "unit": "µM"}, {"measurement": "Biofilm prevention SMIC90", "setting": "[19]", "result": 3.9, "unit": "µg/mL"}, {"measurement": "MIC", "setting": "[20]", "result": 1.95, "unit": "µg/mL"}, {"measurement": "MIC (in parentheses)", "setting": "[20]", "result": 2.3, "unit": "µM"}, {"measurement": "MIC", "setting": "[21]", "result": 0.25, "unit": "µg/mL"}, {"measurement": "MIC (in parentheses)", "setting": "[21]", "result": 0.3, "unit": "µM"}, {"measurement": "MIC", "setting": "[22]", "result": 0.98, "unit": "µg/mL"}, {"measurement": "MIC (in parentheses)", "setting": "[22]", "result": 0.6, "unit": "µM"}]}
